Reference: patent publication US20120064056A1, “DICHLORACETATE IN COMBINATION WITH CLINICALLY HIGH LEVELS OF CARDIOPROTECTIVE OR HEMODYNAMIC DRUGS” (THE GOVERNORS OF THE UNIVERSITY OF ALBERTA TEC Edmonton, priority 2002, published 2012)

Key:
[1] = test system: isolated rat hearts subjected to global ischemia; experiment: Isolated working rat heart, global ischemia and reperfusion: glycolysis and glucose oxidation; conditions: digoxin 3 nM, metoprolol 1 μM
Experimental: Hearts were trimmed of excess tissue, and the pulmonary artery and the opening to the left atrium were then cannulated. After 15 min of Langendorff perfusion, hearts were switched to the working mode by clamping the aortic inflow line from the Langendorff reservoir and opening the left atrial inflow line. The perfusate was delivered from an oxygenator into the left atrium at a constant preload pressure of 11 mm Hg. […] The afterload was set at a hydrostatic pressure of 80 mm Hg. […] Palmitate was bound to the albumin as described previously ([…]., et al. J Biol. Chem. 267:3825-3831 (1992)). […] For the aerobic model hearts, all tested compounds were introduced into the heart 5 minutes into the working mode following Langendorff Perfusion. […] All tested compounds were introduced into the perfusate five minutes prior to reperfusion. […] Am J Physiol. 270:[…]. Am J Cardiol. 80:3A-10A (1997)). […] In the global ischemia model, the total myocardial ^3H2O and ^14CO2 production were determined at 20 minute intervals for the 60 minute reperfusion period. […] L., et al. Biochemistr. 1923:6503-6062 (1984)).

[2] = test system: isolated rat hearts subjected to global ischemia; experiment: Isolated working rat heart, global no flow ischemia and reperfusion: cardiac function and efficiency
Experimental: Hearts were trimmed of excess tissue, and the pulmonary artery and the opening to the left atrium were then cannulated. After 15 min of Langendorff perfusion, hearts were switched to the working mode by clamping the aortic inflow line from the Langendorff reservoir and opening the left atrial inflow line. The perfusate was delivered from an oxygenator into the left atrium at a constant preload pressure of 11 mm Hg. […] The afterload was set at a hydrostatic pressure of 80 mm Hg. […] Palmitate was bound to the albumin as described previously ([…]., et al. J Biol. Chem. 267:3825-3831 (1992)). […] For the aerobic model hearts, all tested compounds were introduced into the heart 5 minutes into the working mode following Langendorff Perfusion. Spontaneously beating hearts were used in all perfusions. Heart rate and aortic pressure were measured with a Biopac Systems Inc. blood pressure transducer connected to the aortic outflow line. Cardiac output and aortic flow were measured with Transonic […] ultrasonic flow probes in the preload and afterload lines, respectively. Coronary flow was calculated as the difference between cardiac output and aortic flow. […] Cardiac work was calculated as the product of systolic pressure and cardiac output. Cardiac efficiency was defined as a ratio of cardiac work to MVO2. […] All tested compounds were introduced into the perfusate five minutes prior to reperfusion.

isolated rat hearts = experiment: Isolated working rat heart, aerobic perfusion: cardiac function and efficiency; design: Cardiac Work (CO · PSP): unit not given beside the values
[3] = post-ischemic reperfusion, DCA 2 mM, digoxin 3 nM, metoprolol 1 μM
[4] = aerobically perfused, DCA 2 mM, diltiazem 0.8 μM, digoxin 3 nM, metoprolol 1 μM, dobutamine 1 μM

In the case of COCCc1ccc(OCC(O)CNC(C)C)cc1 (stereo not drawn) [Metoprolol, metoprolol], the “glycolytic rates as compared to control, in words” value ([1]; FIG. 10, FIG. 16, DCA 2 mM) is reported as “neither DCA, metoprolol or metoprolol with DCA altered glycolytic rates”, the “glucose oxidation rates, in words” value ([1]; reperfusion period, FIG. 9, FIG. 15, DCA 2 mM) is reported as “no effect” and the “Aortic Outflow” value [2, 3] is reported as 11 ± 5 mL/min. For the same molecule, the “Cardiac Output” value [2, 3] was 24 ± 9 mL/min, the “Coronary Flow” value [2, 3] was 13 ± 4 mL/min and the “HR × PSP” value [2, 3] was 13 ± 6 beats · min^−1 · mmHg · 10^−2. The “Heart Rate” value [2, 3] was 185 ± 40 beats · min^−1, the “Peak Systolic Pressure” value [2, 3] was 73 ± 17 mmHg and the “functional parameters (cardiac function, cardiac efficiency) during the reperfusion period compared to control (Table 1, Table 2), in words” value ([2]; reperfusion period) was “significantly improved”. The “recovery of cardiac function of previously ischemic hearts compared to control, in words” value ([2]; reperfusion period, FIG. 11, FIG. 17) was “does not change cardiac function”, the “recovery of cardiac work of previously ischemic hearts compared to control, in words” value ([2]; reperfusion period, FIG. 12, FIG. 18) was “significantly improve the recovery” and the “recovery of oxygen consumption of previously ischemic hearts, in words” value ([2]; reperfusion period, FIG. 13, FIG. 19) was “There does not appear to be significant differences”. The “recovery of cardiac efficiency of previously ischemic hearts compared to control, in words” value ([2]; reperfusion period, FIG. 14, FIG. 20) was “does not”, the “Aortic Outflow” value (isolated rat hearts; [4]) was 35 ± 5 mL/min and the “Cardiac Efficiency (CW · O2^−1)” value (isolated rat hearts; [4]) was 1.85 ± 0.15. The “Cardiac Output” value (isolated rat hearts; [4]) was 55 ± 8 mL/min, the “Cardiac Work (CO · PSP)” value (isolated rat hearts; [4]) was 71 ± 10 and the “Coronary Flow” value (isolated rat hearts; [4]) was 20 ± 3 mL/min. For the same molecule, the “HR × PSP” value (isolated rat hearts; [4]) was 32 ± 4 beats · min^−1 · mmHg · 10^−2, the “Heart Rate” value (isolated rat hearts; [4]) was 250 ± 26 beats · min^−1 and the “O2 Consumption” value (isolated rat hearts; [4]) was 40 ± 9 μmolO2 · g dry wt^−1 · min^−1. For the same molecule, the “Peak Systolic Pressure” value (isolated rat hearts; [4]) was 130 ± 2 mmHg, the “effect on functional parameters shown in Table 2 incl. O2 consumption and cardiac efficiency, in words” value (isolated rat hearts; normal hearts, aerobic, compared to control) was “no significant effect” and the “effect on functional parameters shown in Table 1 (heart rate, peak systolic pressure, HR×PSP), in words” value (isolated rat hearts; normal hearts, aerobic, compared to control (DCA and dobutamine: compared to dobutamine alone)) was “no significant effect”.
